Results taken from ChEMBL document CHEMBL1201862, “PubChem BioAssay data set” (2004).
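Interpolation was linear, between the two tested concentrations surrounding the appropriate level; five concentrations were tested over 48 hours in 96-well plates. Abbreviation: GI50, concentration required for 50% inhibition of growth.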 Active and inactive are the calls of the source. No stated cut-off is given here; in the data, active = GI50 up to about 1.1 µM and inactive = higher.

What was measured:
Assay in all cases: inhibition of tumour cell growth, NCI panel, 48 h
NCI-H522 = system: NCI-H522
NCI-H226 = system: NCI-H226
HL-60 = system: HL-60
KM12 = system: KM12
M14 = system: M14
ACHN = system: ACHN
TK-10 = system: TK-10
U-251 = system: U-251
OVCAR-5 = system: OVCAR-5
EKVX = system: EKVX
RPMI-8226 = system: RPMI-8226
OVCAR-4 = system: OVCAR-4
COLO 205 = system: COLO 205
Malme-3M = system: Malme-3M
SK-MEL-5 = system: SK-MEL-5
SK-MEL-2 = system: SK-MEL-2
HCT-116 = system: HCT-116

Measured: GI50

COc1ccc2ccccc2c1C1OC(=O)c2ccccc21 (stereo not given)
inactive: NCI-H522 63.5 µM | NCI-H226 > 100 µM | HL-60 44.3 µM | KM12 56.6 µM | M14 > 100 µM | ACHN > 100 µM | TK-10 > 100 µM | U-251 > 100 µM | OVCAR-5 > 100 µM | EKVX > 100 µM | RPMI-8226 > 100 µM | OVCAR-4 82.8 µM | COLO 205 > 100 µM | Malme-3M > 100 µM | SK-MEL-5 > 100 µM

C[C@]12CCC(=O)C=C1CC[C@@H]1C2CC[C@]2(C)c3nn(-c4ccccc4)nc3CC12 (stereo not given in full)
inactive: NCI-H226 > 100 µM | SK-MEL-2 > 100 µM | HL-60 > 100 µM | KM12 > 100 µM | M14 > 100 µM | ACHN > 100 µM | TK-10 > 100 µM | HCT-116 > 100 µM | U-251 > 100 µM | OVCAR-5 > 100 µM | EKVX > 100 µM | RPMI-8226 > 100 µM | OVCAR-4 > 100 µM | COLO 205 > 100 µM | Malme-3M > 100 µM | SK-MEL-5 > 100 µM

Nc1nc2c(-c3ccc([N+](=O)[O-])cc3)nnn2c2ccccc12
inactive: NCI-H226 > 100 µM | SK-MEL-2 > 100 µM | HL-60 > 100 µM | KM12 > 100 µM | M14 > 100 µM | ACHN > 100 µM | TK-10 21 µM | U-251 17.9 µM | OVCAR-5 > 100 µM | EKVX > 100 µM | RPMI-8226 > 100 µM | OVCAR-4 > 100 µM | COLO 205 > 100 µM | Malme-3M > 100 µM

N/C=N/S(=O)(=O)c1ccc(NC(=O)COC(=O)c2cccc3c(=O)c4ccccc4[nH]c23)cc1
inactive: NCI-H522 > 100 µM | NCI-H226 > 100 µM | HL-60 > 100 µM | KM12 > 100 µM | M14 67.8 µM | ACHN > 100 µM | TK-10 > 100 µM | HCT-116 > 100 µM | U-251 > 100 µM | EKVX > 100 µM | RPMI-8226 > 100 µM | COLO 205 > 100 µM | Malme-3M > 100 µM | SK-MEL-5 > 100 µM

CCN1CC2(C)CC[C@@H](OC)C34[C@@H]2[C@H](OC(C)=O)C2(OCO[C@@]25C[C@H](OC)C2C[C@]3(O)[C@@H]5[C@H]2O)[C@H]14
inactive: NCI-H522 > 100 µM | NCI-H226 > 100 µM | SK-MEL-2 > 100 µM | HL-60 > 100 µM | KM12 > 100 µM | M14 > 100 µM | TK-10 > 100 µM | HCT-116 > 100 µM | U-251 > 100 µM | OVCAR-5 > 100 µM | EKVX > 100 µM | OVCAR-4 > 100 µM | COLO 205 > 100 µM | Malme-3M > 100 µM

C=C(/C=C/C=C(\CO)CCC=C(C)C)[C@H]1CCC2([C@H](CCCO)/C(=C(/C)C=O)CC[C@]2(C)O)[C@H]1O (stereo not given in full)
inactive: SK-MEL-2 > 100 µM | HL-60 56.1 µM | KM12 > 100 µM | M14 > 100 µM | ACHN > 100 µM | TK-10 82 µM | HCT-116 > 100 µM | U-251 > 100 µM | OVCAR-5 > 100 µM | EKVX 83.8 µM | RPMI-8226 > 100 µM | OVCAR-4 > 100 µM | COLO 205 26.3 µM | Malme-3M > 100 µM | SK-MEL-5 > 100 µM

CC1=C(O)C(=O)C2C(=O)C1C(C)C2c1ccccc1 (stereo not given)
inactive: NCI-H522 > 100 µM | NCI-H226 > 100 µM | SK-MEL-2 > 100 µM | KM12 > 100 µM | M14 > 100 µM | ACHN > 100 µM | TK-10 > 100 µM | U-251 > 100 µM | OVCAR-5 > 100 µM | EKVX > 100 µM | RPMI-8226 > 100 µM | OVCAR-4 > 100 µM | COLO 205 > 100 µM | Malme-3M > 100 µM | SK-MEL-5 > 100 µM

O=C1Nc2ccc([N+](=O)[O-])cc2/C1=N/Nc1ccc([N+](=O)[O-])cc1
inactive: NCI-H522 17.2 µM | NCI-H226 2.72 µM | SK-MEL-2 30.1 µM | KM12 12.4 µM | M14 15.8 µM | ACHN 22.3 µM | TK-10 24.8 µM | U-251 19.8 µM | EKVX 35.3 µM | RPMI-8226 5.09 µM | OVCAR-4 19.5 µM | COLO 205 34.7 µM | SK-MEL-5 12.2 µM

Cc1cccc(NC(=O)/C(=N\NC(C)(C)C)C2NC(=S)NC2=O)c1C (stereo not given)
inactive: SK-MEL-2 > 100 µM | HL-60 > 100 µM | KM12 > 100 µM | M14 > 100 µM | ACHN > 100 µM | TK-10 > 100 µM | HCT-116 > 100 µM | U-251 > 100 µM | OVCAR-5 > 100 µM | EKVX 59.6 µM | RPMI-8226 > 100 µM | OVCAR-4 > 100 µM | COLO 205 > 100 µM | Malme-3M > 100 µM | SK-MEL-5 > 100 µM

CC(=O)Nc1ccc(/C=N\N2C(=O)c3ccccc3C2=O)cc1
inactive: NCI-H226 > 100 µM | SK-MEL-2 > 100 µM | HL-60 > 100 µM | KM12 > 100 µM | M14 > 100 µM | ACHN > 100 µM | TK-10 > 100 µM | HCT-116 > 100 µM | OVCAR-5 > 100 µM | EKVX > 100 µM | RPMI-8226 > 100 µM | OVCAR-4 > 100 µM | Malme-3M > 100 µM | SK-MEL-5 > 100 µM
